Tests used:
[1] = molecular target: T1, BRAF G466V (Homo sapiens, UniProt P15056, G466V); test: Cellular assay of target protein degradation, T-Rex 293 cells stably transfected with HA-BRAF G466V (HA immunofluorescence, high content imaging); format: cell-based; conditions: T-Rex 293 HA-BRAF G466V; for DC50: half maximal degradation, read-out: BRaf G466V DC50; for Dmax: maximum degradation observed
T1 construct: expressed in transfected cells
In short: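 Read-out is HA immunofluorescence by high content imaging, with Hoechst and phalloidin co-staining, giving DC50 and Dmax as a percentage of control. Compound exposure lasts 24 hours at 37° C over 30 nM to 3 pM in 0.1% DMSO, with doxycycline-induced HA-BRAF G466V.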

[2] = molecular target: T2, BRAF V600E (Homo sapiens, UniProt P15056, V600E); test: Cellular assay of target protein degradation, T-Rex 293 cells stably transfected with HA-BRAF_V600E (HA immunofluorescence, high content imaging); format: cell-based; conditions: T-Rex 293 HA-BRAF V600E; for DC50: half maximal degradation, read-out: BRaf V600E DC50; for Dmax: maximum degradation observed
T2 construct: expressed in transfected cells
T2 sequence (P15056 whole entry V600E): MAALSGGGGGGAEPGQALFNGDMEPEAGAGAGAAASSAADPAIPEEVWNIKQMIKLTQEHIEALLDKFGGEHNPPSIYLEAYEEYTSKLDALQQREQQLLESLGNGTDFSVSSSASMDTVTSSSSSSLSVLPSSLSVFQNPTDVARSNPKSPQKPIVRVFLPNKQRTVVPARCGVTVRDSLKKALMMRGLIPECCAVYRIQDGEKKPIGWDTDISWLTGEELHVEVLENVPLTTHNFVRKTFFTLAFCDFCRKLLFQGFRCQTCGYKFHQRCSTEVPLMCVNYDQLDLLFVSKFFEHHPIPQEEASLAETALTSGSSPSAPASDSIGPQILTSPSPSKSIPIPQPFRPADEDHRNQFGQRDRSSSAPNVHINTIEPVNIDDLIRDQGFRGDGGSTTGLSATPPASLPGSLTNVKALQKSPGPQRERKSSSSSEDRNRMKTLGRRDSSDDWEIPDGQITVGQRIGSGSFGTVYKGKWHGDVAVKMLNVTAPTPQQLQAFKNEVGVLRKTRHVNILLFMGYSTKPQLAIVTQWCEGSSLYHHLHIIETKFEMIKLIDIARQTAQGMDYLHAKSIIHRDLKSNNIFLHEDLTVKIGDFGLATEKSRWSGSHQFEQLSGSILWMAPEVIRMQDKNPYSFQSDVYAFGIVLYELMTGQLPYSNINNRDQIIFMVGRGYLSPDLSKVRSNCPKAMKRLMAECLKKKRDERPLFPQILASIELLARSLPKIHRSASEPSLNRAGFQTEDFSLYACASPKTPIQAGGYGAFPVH
In short: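 Cells are plated with 1 ng/mL doxycycline and grown 24 h. Compound is then added (final 1 μM–0.1 nM, 0.1% DMSO) for another 24 h at 37 °C, followed by fixing, HA immunostaining and imaging to obtain DC50 and Dmax.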

T1 sequence (P15056 whole entry G466V): as the sequence (P15056 whole entry V600E) above, with G466V, E600V counted along it

Row | SMILES | DC50 [1] [nM] | Dmax [1] [%] | DC50 [2] [nM] | Dmax [2] [%]
1 | O=C1CCC(N2Cc3cc(CCCOCC4CCN(c5ccc(-c6cnc7[nH]cc(C(=O)c8c(F)ccc(NS(=O)(=O)N9CC[C@@H](F)C9)c8F)c7c6)cc5)CC4)ccc3C2=O)C(=O)N1 (stereo partly drawn) [Compound 294, (3R)-N-[3-(5-{4-[4-({3-[2-(2,6-dioxopiperidin-3-yl)-1-oxo-2,3-dihydro-1H-isoindol-5-yl]propoxy}methyl)piperidin-1-yl]phenyl}-1H-pyrrolo[2,3-b]pyridine-3-carbonyl)-2,4-difluorophenyl]-3-fluoropyrrolidine-1-sulfonamide] | 1 to 10 | 35 to 70 | 50 to 500 | 35 to 70
2 | COc1cc([C@@H](O)CCN2CCN(c3ccc(-c4cnc5[nH]cc(C(=O)c6c(F)ccc(NS(=O)(=O)N7CC[C@@H](F)C7)c6F)c5c4)cc3)CC2)cc2c1C(=O)N([C@@H]1CCC(=O)NC1=O)C2 [Compound 296, (3R)-N-{3-[5-(4-{4-[(3S)-3-{2-[(3R)-2,6-dioxopiperidin-3-yl]-7-methoxy-1-oxo-2,3-dihydro-1H-isoindol-5-yl}-3-hydroxypropyl]piperazin-1-yl}phenyl)-1H-pyrrolo[2,3-b]pyridine-3-carbonyl]-2,4-difluorophenyl}-3-fluoropyrrolidine-1-sulfonamide] | 1 to 10 | 35 to 70 | 50 to 500 | 35 to 70
3 | O=C1CCC(N2Cc3cc(C4CCN(C[C@H]5CCN(c6ccc(-c7cnc8[nH]cc(C(=O)c9c(F)ccc(NS(=O)(=O)N%10CC[C@@H](F)C%10)c9F)c8c7)cc6)C[C@H]5F)CC4)ccc3C2=O)C(=O)N1 (stereo partly drawn) [Compound 297, (3R)-N-[3-(5-{4-[(3S,4R)-4-({4-[2-(2,6-dioxopiperidin-3-yl)-1-oxo-2,3-dihydro-1H-isoindol-5-yl]piperidin-1-yl}methyl)-3-fluoropiperidin-1-yl]phenyl}-1H-pyrrolo[2,3-b]pyridine-3-carbonyl)-2,4-difluorophenyl]-3-fluoropyrrolidine-1-sulfonamide] | < 1 | > 70 | 5 to 50 | 35 to 70
4 | O=C1CCC(N2Cc3cc(N4CCC(CN5CCN(C6(c7ncc(-c8cnc9[nH]cc(C(=O)c%10c(F)ccc(NS(=O)(=O)N%11CC[C@@H](F)C%11)c%10F)c9c8)cn7)CC6)CC5)CC4)ccc3C2=O)C(=O)N1 (stereo partly drawn) [Compound 298, (3R)-N-{3-[5-(2-{1-[4-({1-[2-(2,6-dioxopiperidin-3-yl)-1-oxo-2,3-dihydro-1H-isoindol-5-yl]piperidin-4-yl}methyl)piperazin-1-yl]cyclopropyl}pyrimidin-5-yl)-1H-pyrrolo[2,3-b]pyridine-3-carbonyl]-2,4-difluorophenyl}-3-fluoropyrrolidine-1-sulfonamide] | < 1 | 35 to 70 | 50 to 500 | < 35
5 | O=C1CCC(N2Cc3cc([C@H](O)CN4CC5(C4)CN(c4ccc(-c6cnc7[nH]cc(C(=O)c8c(F)ccc(NS(=O)(=O)N9CC[C@@H](F)C9)c8F)c7c6)cc4)C5)ccc3C2=O)C(=O)N1 (stereo partly drawn) [Compound 299, (3R)-N-{3-[5-(4-{6-[(2S)-2-[2-(2,6-dioxopiperidin-3-yl)-1-oxo-2,3-dihydro-1H-isoindol-5-yl]-2-hydroxyethyl]-2,6-diazaspiro[3.3]heptan-2-yl}phenyl)-1H-pyrrolo[2,3-b]pyridine-3-carbonyl]-2,4-difluorophenyl}-3-fluoropyrrolidine-1-sulfonamide] | 1 to 10 | > 70 | 5 to 50 | 35 to 70
6 | O=C1CC[C@H](N2Cc3cc([C@@H](O)CCN4CCN(c5ccc(-c6cnc7[nH]cc(C(=O)c8c(F)ccc(NS(=O)(=O)N9CC[C@@H](F)C9)c8F)c7c6)cc5)CC4)c(F)cc3C2=O)C(=O)N1 [Compound 300, (3R)-N-{3-[5-(4-{4-[(3S)-3-{2-[(3S)-2,6-dioxopiperidin-3-yl]-6-fluoro-1-oxo-2,3-dihydro-1H-isoindol-5-yl}-3-hydroxypropyl]piperazin-1-yl}phenyl)-1H-pyrrolo[2,3-b]pyridine-3-carbonyl]-2,4-difluorophenyl}-3-fluoropyrrolidine-1-sulfonamide] | < 1 | 35 to 70 | 50 to 500 | 35 to 70
7 | O=C1CC[C@@H](N2Cc3cc([C@@H](O)CCN4CCN(c5ccc(-c6cnc7[nH]cc(C(=O)c8c(F)ccc(NS(=O)(=O)N9CC[C@@H](F)C9)c8F)c7c6)cc5)CC4)c(F)cc3C2=O)C(=O)N1 [Compound 301, (3R)-N-{3-[5-(4-{4-[(3S)-3-{2-[(3R)-2,6-dioxopiperidin-3-yl]-6-fluoro-1-oxo-2,3-dihydro-1H-isoindol-5-yl}-3-hydroxypropyl]piperazin-1-yl}phenyl)-1H-pyrrolo[2,3-b]pyridine-3-carbonyl]-2,4-difluorophenyl}-3-fluoropyrrolidine-1 sulfonamide] | < 1 | > 70 | 50 to 500 | 35 to 70
8 | O=C1CCC(N2Cc3cc(N4CCC(CC5CN(c6ccc(-c7cnc8[nH]cc(C(=O)c9c(F)ccc(NS(=O)(=O)N%10CC[C@@H](F)C%10)c9F)c8c7)cc6)C5)CC4)ccc3C2=O)C(=O)N1 (stereo partly drawn) [Compound 302, (3R)-N-[3-(5-{4-[3-({1-[2-(2,6-dioxopiperidin-3-yl)-1-oxo-2,3-dihydro-1H-isoindol-5-yl]piperidin-4-yl}methyl)azetidin-1-yl]phenyl}-1H-pyrrolo[2,3-b]pyridine-3-carbonyl)-2,4-difluorophenyl]-3-fluoropyrrolidine-1-sulfonamide] | 1 to 10 | 35 to 70 | 50 to 500 | 35 to 70
9 | O=C1CCC(N2Cc3cc(N4CC(CN5CCC(Cc6ccc(-c7cnc8[nH]cc(C(=O)c9c(F)ccc(NS(=O)(=O)N%10CC[C@@H](F)C%10)c9F)c8c7)cc6)CC5)C4)ccc3C2=O)C(=O)N1 (stereo partly drawn) [Compound 303, (3R)-N-{3-[5-(4-{[1-({1-[2-(2,6-dioxopiperidin-3-yl)-1-oxo-2,3-dihydro-1H-isoindol-5-yl]azetidin-3-yl}methyl)piperidin-4-yl]methyl}phenyl)-1H-pyrrolo[2,3-b]pyridine-3-carbonyl]-2,4-difluorophenyl}-3-fluoropyrrolidine-1-sulfonamide] | 1 to 10 | > 70 | 5 to 50 | 35 to 70
10 | O=C1CCC(N2Cc3cc(N4CC(CN5CCC(C6(c7ccc(-c8cnc9[nH]cc(C(=O)c%10c(F)ccc(NS(=O)(=O)N%11CC[C@@H](F)C%11)c%10F)c9c8)cc7)CC6)CC5)C4)ccc3C2=O)C(=O)N1 (stereo partly drawn) [Compound 304, (3R)-N-{3-[5-(4-{1-[1-({1-[2-(2,6-dioxopiperidin-3-yl)-1-oxo-2,3-dihydro-1H-isoindol-5-yl]azetidin-3-yl}methyl)piperidin-4-yl]cyclopropyl}phenyl)-1H-pyrrolo[2,3-b]pyridine-3-carbonyl]-2,4-difluorophenyl}-3-fluoropyrrolidie-1-sulfonamide] | 1 to 10 | 35 to 70 | 50 to 500 | 35 to 70
11 | O=C1CCC(N2Cc3cc(N4CC(CC5CCN(c6ccc(-c7cnc8[nH]cc(C(=O)c9c(F)ccc(NS(=O)(=O)N%10CC[C@@H](F)C%10)c9F)c8c7)cc6)CC5)C4)ccc3C2=O)C(=O)N1 (stereo partly drawn) [Compound 306, (3R)-N-[3-(5-{4-[4-({1-[2-(2,6-dioxopiperidin-3-yl)-1-oxo-2,3-dihydro-1H-isoindol-5-yl]azetidin-3-yl}methyl)piperidin-1-yl]phenyl}-1H-pyrrolo[2,3-b]pyridine-3-carbonyl)-2,4-difluorophenyl]-3-fluoropyrrolidine-1-sulfonamide] | 1 to 10 | 35 to 70 | 50 to 500 | 35 to 70
12 | O=C1CCC(N2Cc3cc(N4CCC(CN5CC(Cc6ncc(-c7cnc8[nH]cc(C(=O)c9c(F)ccc(NS(=O)(=O)N%10CC[C@@H](F)C%10)c9F)c8c7)cn6)C5)CC4)ccc3C2=O)C(=O)N1 (stereo partly drawn) [Compound 307, (3R)-N-{3-[5-(2-{[1-({1-[2-(2,6-dioxopiperidin-3-yl)-1-oxo-2,3-dihydro-1H-isoindol-5-yl]piperidin-4-yl}methyl)azetdidin-3-yl]methyl}pyrimidin-5-yl)-1H-pyrrolo[2,3-b]pyridine-3-carbonyl]-2,4-difluorophenyl}-3-fluoropyrrolidine-1-sulfonamide] | 1 to 10 | 35 to 70 | > 500 | > 70
13 | O=C1CCC(N2Cc3cc(N4CCC(CCC5CCN(c6ccc(-c7cnc8[nH]cc(C(=O)c9c(F)ccc(NS(=O)(=O)N%10CC[C@@H](F)C%10)c9F)c8c7)cc6)CC5)CC4)ccc3C2=O)C(=O)N1 (stereo partly drawn) [Compound 308, (3R)-N-[3-(5-{4-[4-(2-{1-[2-(2,6-dioxopiperidin-3-yl)-1-oxo-2,3-dihydro-1H-isoindol-5-yl]piperidin-4-yl}ethyl)piperidin-1-yl]phenyl}-1H-pyrrolo[2,3-b]pyridine-3-carbonyl)-2,4-difluorophenyl]-3-fluoropyrrolidine-1-sulfonamide] | > 30 | – | 50 to 500 | < 35
14 | O=C1CCC(N2Cc3cc(N4CCC(CN5CC[C@@H]6CN(c7ccc(-c8cnc9[nH]cc(C(=O)c%10c(F)ccc(NS(=O)(=O)N%11CC[C@@H](F)C%11)c%10F)c9c8)cc7)C[C@@H]6C5)CC4)ccc3C2=O)C(=O)N1 (stereo partly shown) [Compound 309] | 1 to 10 | > 70 | 5 to 50 | 35 to 70

From patent US12180193B2, “Accelerating fibrosarcoma protein degrading compounds and associated methods of use” (Arvinas Operations, Inc., priority 2020, dated 2024)
